One assay concerns the target CDK6 (Homo sapiens, UniProt Q00534). Briefly: radiometric kinase assay. In kind it is biochemical.
The target in a further assay is CDK4 (Homo sapiens, UniProt P11802). Briefly: radiometric kinase assay. Type of assay: biochemical.
Chain of CDK4 (P11802 2-303): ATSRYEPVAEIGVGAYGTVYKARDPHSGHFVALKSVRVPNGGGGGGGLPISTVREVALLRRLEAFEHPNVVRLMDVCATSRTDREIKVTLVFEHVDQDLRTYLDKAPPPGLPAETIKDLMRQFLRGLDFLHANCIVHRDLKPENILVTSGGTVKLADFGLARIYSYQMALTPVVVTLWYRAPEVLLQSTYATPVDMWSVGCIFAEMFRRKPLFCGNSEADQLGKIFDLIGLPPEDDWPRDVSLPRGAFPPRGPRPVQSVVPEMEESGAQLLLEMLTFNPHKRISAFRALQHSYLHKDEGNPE

Chain of CDK6 (Q00534 whole entry): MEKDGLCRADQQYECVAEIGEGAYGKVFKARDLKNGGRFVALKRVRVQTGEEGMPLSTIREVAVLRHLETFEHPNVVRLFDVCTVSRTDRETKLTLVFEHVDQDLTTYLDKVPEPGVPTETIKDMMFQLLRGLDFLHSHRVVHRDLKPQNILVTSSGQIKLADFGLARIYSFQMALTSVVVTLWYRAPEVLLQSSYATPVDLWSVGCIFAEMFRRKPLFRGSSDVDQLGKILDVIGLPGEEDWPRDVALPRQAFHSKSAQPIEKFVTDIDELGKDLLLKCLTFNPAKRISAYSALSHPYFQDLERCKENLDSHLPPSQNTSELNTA

`O=C(O)CN(CC(=O)O)Cc1cc2c(cc1O)Oc1cc(O)c(CN(CC(=O)O)CC(=O)O)cc1C21OC(=O)c2ccccc21` [calcein, 4′5′-bis(N, N-bis(carboxymethyl)aminomethyl) fluorescein] yielded a concentration for half-maximal inhibition (IC50) at CDK6 of 75 µM. The “radiometric kinase assay (GST-Rb substrate) on CDK4 immunoprecipitated from HCT1” value on CDK4 was ~ 75 μM.

For the origin of these results see article PMC3361763 (2011).
